Values quoted from earlier work, collected in patent US20150182481A1, “USE OF POLYMER D-LACTIC ACID (PDLA) TO TREAT PAIN” (priority 2013, published 2015).

Experiments:
C fibers = conditions: 300 mM lactic acid injection
[1] = tested on: nerve poisoned by iodoacetic acid (I.A.A.) and continuously tetanized; conditions: I.A.A. solution containing lactate 180 mg/100 cc

## C[C@@H](O)C(=O)O [d-lactic acid]
Asymptomatic exercising subjects
  plasma d-lactate in asymptomatic exercising subjects: 12 mM
Reversible altered mental status, dysarthria, ataxia
  average plasma concentration at which neurotoxic: 7.98 mM

## C[C@H](O)C(=O)O [lactic acid, L-Lactic acid]
C fibers
  firing of C fibers: increase firing of C fibers

## CC(O)C(=O)[O-].[Na+] (stereo not shown) [sodium lactate]
[1]
  effect on sustained galvanic contractions of the nerve: enhances repeated nerve tetanization
